Data from patent publication US9877947B2, “C-terminal HSP90 inhibitors to treat pituitary adenomas” (priority 2013, dated 2018).

Columns and labels:
Format in all cases: cell-based
[1] = tested on: corticotroph tumor cell line AtT-20; test: Proliferation assay (WST-1 assay); conditions: 96 hours treatment, different doses, WST-1, vs vehicle = 100%
Method: AtT-20 cells were treated for 96 hours with different doses of (A) 17-AAG, (B) silibinin, or (C) novobiocin.
Cell proliferation was measured with the WST-1 proliferation assay (Roche Applied Science). This assay measures the activity of the mitochondrial succinate dehydrogenase. After 4 days of treatment with different HSP90 inhibitors, the WST-1 reagent was added to AtT-20 cell cultures in 96-well plates to a final dilution of 1:10. The cells were incubated for 2 hours and then the absorbance of the reaction product was measured with an ELISA reader at 440 nm, following the manufacturer's instructions.

[2] = tested on: GR (glucocorticoid receptor) protein; test: Western blot, induction of GR degradation; conditions: AtT-20 cells
Method: (§1) AtT-20 cells were treated with (A) 17-AAG, (B) silibinin, or (C) novobiocin. At the end of the treatment, the GR, Cdk1 and actin proteins were detected by Western blot.
(§2) AtT-20 cells in 6-well plates were treated with different HSP90 inhibitors for the times indicated in each experiment. At the end of the treatment, cell lysates were prepared in lysis buffer supplemented with protease and phosphatase inhibitor cocktail (Roche). Samples of the lysates were separated by PAGE and blotted onto membranes using standard western blot procedures with gels and buffers from Invitrogen. After blocking the membranes with 5% non-fat dry milk, primary antibodies against GR (H-300, Santa Cruz), Cdk1 (BD Transduction Laboratories), and actin (Cell Signalling) were added. Anti-mouse and anti-rabbit horseradish peroxidase-conjugated secondary antibodies were used to detect the primary antibodies. The detection was carried out using Lumilight (Roche) or ECL-Plus (Thermo Scientific).

[3] = tested on: Cdk1; test: Western blot, Cdk1 degradation; conditions: AtT-20 cells
Method: as §1, §2

[4] = tested on: GR (glucocorticoid receptor); test: Evaluation of GR activity (MTV-Luc reporter); conditions: AtT-20 cells, 72 hours, in combination with dexamethasone
Method: AtT-20 cells were treated for 72 hours with different doses of (A) 17-AAG, (B) silibinin, or (C) novobiocin. At the end of the treatment, GR activity was measured by transfection of the reporter construct MTV-luc.
AtT-20 cells (3×10^5) were transfected for 3 hours with 1 μg of the MTV-Luc reporter plasmid in 6-well plates. Cell transfection was performed with SuperFect (Qiagen GmbH). After an overnight incubation in culture medium with 10% fetal calf serum, the cells were treated with different HSP90 inhibitors in combination with dexamethasone. Luciferase activity in cell lysates was measured with a Berthold luminometer after addition of luciferin and ATP. Transfection efficiency was determined using the Rous sarcoma virus-β-gal construct. Data are expressed as the ratio of luciferase activity to β-gal activity.

[5] = tested on: AtT-20 cells; test: Evaluation of ACTH secretion (RIA); conditions: for ACTH secretion: 48 hours, plus dexamethasone 100 nM
Method: AtT-20 cells were treated for 48 hours with the glucocorticoid dexamethasone (100 nM) plus different doses of 17-AAG or silibinin, as indicated in the figure. At the end of the treatment, ACTH was measured by RIA.
AtT-20 cells were treated for 72 hours with 10 μM silibinin in combination with different doses of octreotide, as indicated in the figure.
AtT-20 cells were seeded in 96-well plates in cell culture medium containing dexamethasone to mimic the high glucocorticoid concentration in the blood of patients with Cushing's disease. At the end of the treatment, the cell culture supernatants were collected and frozen. ACTH secreted into the cell culture medium was measured by radio-immunoassay (RIA) in comparison with known amounts of ACTH standards diluted in the same medium. […] The bound and free fractions were separated by centrifugation with charcoal and the radioactivity was measured in a beta-counter.

[6] = tested on: GH3 somatotroph adenoma cells; test: Evaluation of growth hormone secretion (RIA); conditions: 48 hours
Method: (§3) 10,000 GH3 somatotroph adenoma cells obtained from the American Type Culture Collection (Rockville, Md.) were seeded onto 96-well plates in DMEM with 10% fetal calf serum. After 24 hours the medium was changed and the attached cells were treated with different doses of the HSP90 inhibitors 17-AAG or silibinin, as indicated in the FIG. 11. After 48 hours, culture supernatants were collected and the concentration of growth hormone was measured by RIA.

[7] = tested on: GH3 cells; test: Cell-viability assay WST-1 (toxicity)
[8] = tested on: GH3 prolactinoma cells; test: Evaluation of prolactin secretion (RIA); conditions: 48 hours
Method: as §3, with “prolactinoma” for “somatotroph adenoma”, “in” for “in the”, “10.” for “11.”, “prolactin” for “growth hormone”

[9] = WST-1, growth hormone experiment (Example 07)
[10] = WST-1, prolactin experiment (Example 06)

SMILES	proliferation of AtT-20 cells [1]	GR degradation [2]	Cdk1 degradation [3]	transcriptional activity of GR [4]	ACTH secretion [5]	ACTH secretion in combination with octreotide ([5]; 72 hours, 10 μM silibinin plus sub-optimal concentrations of octreotide)	growth hormone secretion [6]	toxicity for GH3 cells [7, 9]	toxicity for GH3 cells [7, 10]	prolactin secretion [8]
CO[C@@H]1[C@@H](OC(N)=O)[C@@H](O)[C@H](Oc2ccc3c(O)c(NC(=O)c4ccc(O)c(CC=C(C)C)c4)c(=O)oc3c2C)OC1(C)C [novobiocin]	strongly inhibit the proliferation	did not produce this effect	induce degradation of Cdk1	increased the transcriptional activity of GR						
COc1cc([C@H]2Oc3cc([C@H]4Oc5cc(O)cc(O)c5C(=O)[C@@H]4O)ccc3O[C@@H]2CO)ccc1O [silibinin, (2R,3R)-3,5,7-trihydroxy-2-[(2R,3R)-3-(4-hydroxy-3-methoxyphenyl)-2-(hydroxymethyl)-2,3-dihydrobenzo[b][1,4]dioxin-6-yl]chroman-4-one]	strongly inhibit the proliferation	did not produce this effect	induce degradation of Cdk1	increased the transcriptional activity of GR	inhibits ACTH secretion	increases the inhibition of ACTH secretion	significantly inhibited the secretion of growth hormone	no toxicity was observed, even at high concentrations	no toxicity was observed, even at high concentrations	significantly inhibited the secretion of prolactin
C=CCNC1=C2C[C@@H](C)C[C@H](OC)[C@H](O)[C@@H](C)/C=C(\C)[C@H](OC(N)=O)[C@@H](OC)/C=C\C=C(/C)C(=O)NC(=CC1=O)C2=O [17-AAG, 17-N-Allylamino-17-demethoxygeldanamycin]	strongly inhibit the proliferation	induces GR degradation	induce degradation of Cdk1	inhibited this activity	has no effect on ACTH secretion		did not inhibit growth hormone secretion at any of the tested concentrations	Higher concentrations of 17-AAG were toxic	Higher concentrations of 17-AAG were toxic	minimally inhibited prolactin secretion only at a concentration of 1 μM
